Source: US9926529B2, “Derivation of neural stem cells and dopaminergic neurons from human pluripotent stem cells” (International Stem Cell Corporation, priority 2012, dated 2018)
Structures can show the parent of a compound that is named as a salt. Where two headings read alike, the source gives them in different places.

System: hPSC-NSCs
Experiment: RT-PCR expression of dopamine neuron genes in hPSC-NSCs treated with small molecule hits
Format: cell-based, human
Conditions: for fold induction at 2.5 µM: Homo sapiens, Neuron, 336 h
Procedure: The method specifically involved treating both hESC-H9-NSCs (Invitrogen) and hPSC-NSCs with Purmorphamine (2 μM) and FGF8 (100 ng/mL) in NB medium [NeuroBasal medium, 1× GlutaMAX, 1× N2/B27 Supplement (Invitrogen)] for 7 days. After 7 days of Purmorphamine and FGF8 treatment, the NSCs were dissociated with Accutase (Sigma) and plated 20,000 cells/mL into Matrigel coated 96 well plates and treated with small molecule library (Torcris 1120 Biologically Active Compounds) at 2.5 μM final concentration for two weeks (FIG. 6A). Two weeks after treatment with small molecules, all wells were visually observed and scored based on neurite density and dopamine release. For measuring neurite density, cells were fixed with 4% paraformaldehyde and phase contrast images were acquired using Cellavista Cell Imaging System (Roche Applied Science) from randomly selected fields. Neurite density was measured using the Cellavista density software image processing program. Each experimental condition was done in duplicate wells, and at least three independent experiments were conducted to acquire the final results.
Conditioned medium from the top neurite inducers (Table 1) (wells containing the highest density of neurites compare to control 0.1% DMSO treated) were collected and analyzed using a dopamine ELISA assay (Cosmo Bio). Conditioned medium was collected from samples containing 50,000 cells per well and centrifuged at 3000 RPM to remove cell debris. Supernatant was then collected and analyzed for quantitative determination of dopamine using a commercial dopamine ELISA assay kit (CusaCosmo Bio). Data analysis was performed using the microtiter plate reader (BIO-TEK Synergy 2). The results presented are from three independent experiments (n=3) and represented as mean±standard error of mean (s.e.m.) and statistical analysis was performed using the two-tailed Student's t-test with a confidence level of 95% (α=0.05) with statistical significance of P<0.05. Additionally, total RNA from each well were collected and analyze by RT-PCR for expression of TuJ1, MAP2, TH, GRK2, EN1, DAT, AADC, PAX2, NURR1, PITX3 and LMX1B from hPSC-NSCs (Table 2). […] Analysis of the ELISA data indicated the top small molecule neurite inducers produced higher levels of dopamine than control non-treated cells (1.5 ng/mL). […] The percentages of TH positive cells produced by chemical treatment with Kenpaullone (33%), Guggulsterone (35%), Kynurenic Acid (19%), Immedthridine Dihydrobromide (21%), and Dimaprit Dihydrochloride (18%) were higher than 15% of TH positive cells obtained from hPSC-NSCs differentiated for ≥1 month using a standard dopaminergic differentiation medium (BDNF 20 ng/mL, GDNF 20 ng/mL, cAMP 200 μM, Abscorbic Acid 200 μM, TGFβ3 2 ng/mL and DAPT).
Total RNA from at least triplicate samples with around 1 million cells each was isolated using either QIAsymphony automatic purification system or RNeasy Plus Mini kit, according to manufacturer's instructions (Qiagen). Total RNA was used for reverse transcription with the iScript cDNA synthesis kit (Biorad) and Px2 Thermal Cycler (Thermo Scientific). To analyze gene expression, PCR reactions were performed in duplicate using 1/25-th of the cDNA per reaction and the QuantiTect Primer Assay and Quantitest SYBR Green master mix (Qiagen). qPCR was performed using the Rotor-Gene Q (Qiagen) 5 min at 95° C., 5 s at 92° C., and 20 s at 60° C. for 37 cycles followed by melt to check the specificity of the amplicons from 50 to 99° C. raising by 1° C. each step. Relative quantification was performed against a standard curve and quantified values were normalized against the input determined by PPIG. The primers used for the analysis are listed in Supplementary Table S1. […]

[1] = hPSC-NSCs primed 7 days with Purmorphamine and FGF8, small molecule 2.5 μM for two weeks
[2] = hPSC-NSCs primed 7 days with Purmorphamine and FGF8, small molecule 2.5 μM for two weeks, read-out: DDC (AADC) expression by RT-PCR
[3] = hPSC-NSCs primed 7 days with Purmorphamine and FGF8, small molecule 2.5 μM for two weeks, read-out: EN1 expression by RT-PCR
[4] = hPSC-NSCs primed 7 days with Purmorphamine and FGF8, small molecule 2.5 μM for two weeks, read-out: KCNJ6 expression by RT-PCR
[5] = hPSC-NSCs primed 7 days with Purmorphamine and FGF8, small molecule 2.5 μM for two weeks, read-out: LMX1B expression by RT-PCR
[6] = hPSC-NSCs primed 7 days with Purmorphamine and FGF8, small molecule 2.5 μM for two weeks, read-out: MAP2 expression by RT-PCR
[7] = hPSC-NSCs primed 7 days with Purmorphamine and FGF8, small molecule 2.5 μM for two weeks, read-out: NR4A2 (NURR1) expression by RT-PCR
[8] = hPSC-NSCs primed 7 days with Purmorphamine and FGF8, small molecule 2.5 μM for two weeks, read-out: PITX3 expression by RT-PCR
[9] = hPSC-NSCs primed 7 days with Purmorphamine and FGF8, small molecule 2.5 μM for two weeks, read-out: Pax2 expression by RT-PCR
[10] = hPSC-NSCs primed 7 days with Purmorphamine and FGF8, small molecule 2.5 μM for two weeks, read-out: TH1 expression by RT-PCR
[11] = hPSC-NSCs primed 7 days with Purmorphamine and FGF8, small molecule 2.5 μM for two weeks, read-out: Tubb3 expression by RT-PCR
[12] = hPSC-NSCs primed 7 days with Purmorphamine and FGF8, small molecule 2.5 μM for two weeks, read-out: SLC6A3 (DAT) expression by RT-PCR

| Molecule | DDC (AADC) expression by RT-PCR [1] | EN1 expression by RT-PCR [1] | KCNJ6 (GRK2) expression by RT-PCR [1] | LMX1B expression by RT-PCR [1] | MAP2 expression by RT-PCR [1] | NR4A2 (NURR1) expression by RT-PCR [1] | Pax2 expression by RT-PCR [1] | SLC6A3 (DAT) expression by RT-PCR [1] | TH1 expression by RT-PCR [1] | Tubb3 expression by RT-PCR [1] | fold induction at 2.5 µM [2] | fold induction at 2.5 µM [3] | fold induction at 2.5 µM [4] | fold induction at 2.5 µM [5] | fold induction at 2.5 µM [6] | fold induction at 2.5 µM [7] | fold induction at 2.5 µM [8] | fold induction at 2.5 µM [9] | fold induction at 2.5 µM [10] | fold induction at 2.5 µM [11] | also measured |
| --- | --- | --- | --- | --- | --- | --- | --- | --- | --- | --- | --- | --- | --- | --- | --- | --- | --- | --- | --- | --- | --- |
| N[C@@H](CS(=O)O)C(=O)O [L-Cysteinesulfinic acid] | 17.27 | 5.76 | 3.02 | 2.66 | 9.52 | 2.02 | 0.22 | 1.54 | 7.84 | 3.41 | – | – | – | – | – | – | – | – | – | – | – |
| S=C(NC1CCCCC1)N1CCC(c2cnc[nH]2)CC1 [Thioperamide] | – | – | – | – | – | – | – | – | – | – | 95.6 | 7.72 | 2.21 | 3.81 | 13.2 | 3.43 | 0.28 | 1.15 | 8.38 | 5.6 | fold induction at 2.5 µM (read-out: SLC6A3 (DAT) expression by RT-PCR): 25.5 |
| FC(F)(F)c1cccc(-c2noc(-c3cc(-c4ccccc4)c(C(F)(F)F)s3)n2)c1 [SEW 2871] | – | – | – | – | – | – | – | – | – | – | 68.3 | 8.08 | 0.88 | 3.65 | 12.3 | 2.36 | – | 1.59 | 7.6 | 5.17 | fold induction at 2.5 µM [12]: 32.1 |
| c1ccc(-c2[nH]ncc2-c2ccnc3ccccc23)nc1 [LY 364947] | 64.48 | 7.42 | 1.09 | – | 10.48 | 3.01 | – | 5.08 | 5.23 | 4.23 | – | – | – | – | – | – | – | – | – | – | – |
| CC(C)(C)c1cc(C(=O)/C=C/c2ccc(C(=O)O)cc2)cc(C(C)(C)C)c1 [Ch 55] | 22.86 | 11.61 | 0.25 | 1.54 | 5.25 | 77.93 | 0.06 | 0.11 | 1.19 | 3.48 | – | – | – | – | – | – | – | – | – | – | PITX3 expression by RT-PCR [1]: 0.13 |
| CCN1CCC[C@H]1CNC(=O)c1c(OC)ccc(Br)c1OC [Remoxipride hydrochloride] | – | – | – | – | – | – | – | – | – | – | 13.8 | 6.6 | 0.93 | 3.16 | 11.5 | 3.21 | 0.69 | 0.86 | 12 | 5.73 | fold induction at 2.5 µM [12]: 6.41 |
| CC1(C)NC(=O)N(c2ccc([N+](=O)[O-])c(C(F)(F)F)c2)C1=O [Nilutamide] | – | – | – | – | – | – | – | – | – | – | 172 | 5.33 | 2.1 | 2.55 | 10.6 | 1.43 | 0.27 | 0.9 | 10.1 | 3.81 | fold induction at 2.5 µM [12]: 2.07 |
| O=C(O)Cc1cccnc1C(=O)O [Homoquinolinic acid] | 20.19 | 4.83 | 1.76 | 2.32 | 10.03 | 1.99 | 0.05 | 19.18 | 10.77 | 2.95 | – | – | – | – | – | – | – | – | – | – | PITX3 expression by RT-PCR [1]: 0.4 |
| O=S(=O)(c1cccc2cnccc12)N1CCCNCC1 [Fasudil hydrochloride] | – | – | – | – | – | – | – | – | – | – | 32.4 | 8.69 | 1.57 | 3.5 | 11.6 | 4.53 | 0.27 | 0.27 | 5.53 | 5.67 | fold induction at 2.5 µM [12]: 2.79 |
| CCOC(=O)c1ncn2c1CN(C)C(=O)c1cc(N=[N+]=[N-])ccc1-2 [Ro 15-4513] | 12.88 | 5.9 | 0.09 | – | 7.19 | 0.9 | – | 0.46 | 8.49 | 4.9 | – | – | – | – | – | – | – | – | – | – | PITX3 expression by RT-PCR [1]: 0.72 |
| N[C@@H]1CCN(O)C1=O [(R)-(+)-HA-966] | 104.03 | 7.26 | 1.02 | 3.94 | 10.66 | 3.91 | 4.7 | 26.39 | 6.75 | 5.61 | – | – | – | – | – | – | – | – | – | – | PITX3 expression by RT-PCR [1]: 0.23 |
| AM580 | 81.43 | 12.94 | 2.73 | 2.16 | 8.55 | 7.11 | 0.1 | 0.66 | 5.28 | 4.58 | – | – | – | – | – | – | – | – | – | – | – |
| O=C1N(c2ccccc2)c2ccccc2C1(Cc1ccncc1)Cc1ccncc1 [Linopirdine dihydrochloride] | – | – | – | – | – | – | – | – | – | – | 7.02 | 4.06 | 0.16 | 2.84 | 7.02 | 0.69 | 0.26 | 0.3 | 8.61 | 3.74 | fold induction at 2.5 µM [12]: 0.28 |
| Nc1nc(Nc2ccccc2)nc2c1ncn2[C@@H]1O[C@H](CO)[C@@H](O)[C@H]1O [CV 1808] | 16.69 | 5.56 | 0.36 | – | 8.66 | 1.56 | – | 0.94 | 12.51 | 3.86 | – | – | – | – | – | – | – | – | – | – | PITX3 expression by RT-PCR [1]: 0.7 |
